{
  "source": "patent US20240115556A1",
  "about": "“A JMJD6 TARGETING AGENT FOR TREATING PROSTATE CANCER” (Cancer Research Technology Limited, priority 2020, published 2024)",
  "key": {"[1]": {"test_system": "AR-V7 in 22Rv1 PC cells", "assay": "AR-V7 protein (WB) and mRNA (qPCR) levels in 22Rv1 PC cells", "type": "cell-based", "settings": "2,4-PDCA for 48 hours", "description": "(§1) All cell lines were purchased from LGC Standards/ATCC unless otherwise specified and grown in recommended media at 37° C. in 5% CO2. Short tandem repeat profiling was performed using the Cell Authentication Service by Eurofins Medigenomix to ensure the quality and integrity of the cell lines used. Cells lines were tested for mycoplasma after thawing, then regularly every 6-8 weeks during culture using the Venor®GeM Advance Mycoplasma Detection Kit (Minerva Biolabs). Early passages were thawed every 3-months (after approximately 15-20 passages). Small interfering RNA (siRNA): All siRNAs were ONTARGETplus pools (Dharmacon; GE heathcare), and used in combination with 0.4% RNAiMax transfection reagent (ThermoFisher Scientific) as per manufacturer's instructions. siRNA experiments were performed at 50 nM, unless otherwise specified, for 72-hours. […]\n(§2) 0.45 μm pore size (Millipore). […] Chemiluminescence was then detected using the Chemidoc Touch imaging system (BioRad). Quantitative Reverse Transcription Polymerase Chain Reaction (qRT-PCR)\n(§3) The RNeasy Plus Mini kit (Qiagen) was used to extract cellular RNA as per manufacturer's instructions. […] The fold change in mRNA expression levels was calculated by the comparative Ct method, using the formula 2-(-(ΔΔCt)."}, "[2]": {"settings": "at least in some cell types; cited from earlier work"}, "[3]": {"molecular_target": "T1, JMJD6 (1-362) (Homo sapiens, UniProt Q6NYC1)", "T1 construct": "by JMJD6 (1-362, prepared as reported); made in house", "assay": "LC-MS assay for JMJD6 inhibition (hydroxylation of LUC7L2 peptide substrate)", "type": "biochemical", "set-up": "dose or concentration left out as unconfirmed", "settings": "8-point 3-fold serial dilution of 2,4-PDCA, 2 hours at 37° C.", "description": "Liquid Chromatography Mass Spectrometry (LC-MS) assays for JMJD6 inhibition by 2,4-PDCA Hydroxylation of a 12-mer peptide substrate (NPKRSRSREHRR, prepared with a C-terminal amide) of the LUC7L2 pre-mRNA splicing factor by JMJD6 (1-362, prepared as reported) was monitored by liquid chromatography mass spectrometry (LC-MS) using an Agilent 1290 infinity II LC system equipped with an Agilent 1290 infinity binary pump and coupled to an Agilent 6550 Accurate Mass Quadrupole Time of Flight (Q-TOF) mass spectrometer. Note this construct has hydroxylation but not demethylation activity. All JMJD61-362 enzyme reactions were performed in 50 mM Tris.Cl pH 7.5 (prepared fresh each day) at 37° C. […] Peptide ionization was monitored in the positive ion electrospray ionisation (ESI) mode with a drying gas temperature of 280° C., a drying gas flow rate of 13 L/minute, nebulizer gas pressure of 40 PSI, sheath gas temperature of 350° C., sheath gas flow rate of 12 L/min and a nozzle voltage of 1000V. […] The % conversion of the peptide substrate to the +16 hydroxylated peptide was calculated using the equation: % conversion=100×hydroxylated/(hydroxylated+non-hydroxylated peptide). The IC50 for 2,4-PDCA was determined from non-linear regression curve fitting using GraphPad prism 6.0."}, "[4]": {"test_system": "AR-V7 in LNCaP95 PC cells", "assay": "AR-V7 protein (WB) and mRNA (qPCR) levels in LNCaP95 PC cells", "type": "cell-based", "settings": "I-BET151 for 48 hours", "description": "as §1, §2, §3"}, "[5]": {"test_system": "JMJD6 protein in LNCaP95 cells", "assay": "WB of JMJD6 protein in LNCaP95 cells treated with I-BET151", "type": "cell-based", "settings": "I-BET151 for 48 hours", "description": "Subsequent to cell lysis with RIPA buffer (Pierce) supplemented with cOmplete™ EDTA-free Protease Inhibitor Cocktail (Roche), protein extracts (20 μg) were separated by electrophoresis on 4-12% NuPAGE® Bis-Tris gel plates (Invitrogen) prior to transfer onto Immobilon-P™ PVDF membranes of 0.45 μm pore size (Millipore). Membranes were then incubated sequentially with primary and then secondary antibody in 5% milk and tris-buffered saline (TBS) and Tween®20 (Sigma Aldrich). Chemiluminescence was then detected using the Chemidoc Touch imaging system (BioRad). Quantitative Reverse Transcription Polymerase Chain Reaction (qRT-PCR)"}, "[6]": {"test_system": "AR-V7 in VCaP PC cells", "assay": "AR-V7 protein (WB) and mRNA (qPCR) levels in VCaP PC cells", "type": "cell-based", "settings": "72 hour, siRNA 25 nM, Enzalutamide 10 µM", "description": "as §1, §2, §3"}, "[7]": {"test_system": "VCaP PC cells", "assay": "CellTiter-Glo Luminescent Cell Viability Assay, VCaP", "type": "cell-based", "settings": "siRNA 25 nM; Enzalutamide; after 5-days; vs control siRNA + DMSO 0.1%", "description": "Cells were plated in 48-well tissue culture plates and treated as indicated the following day, then grown for 6-days or until 80-90% confluence. To quantify growth of LNCaP, LNCaP95, 22Rv1 and PNT2 cell lines, cells were fixed with 10% (w/v) aqueous trichloroacetic acid and incubated at 4° C. for 30-minutes prior to washing and air-drying. Subsequently cells were stained with sulforhodamine B (SRB) for 30-minutes prior to excess dye removal with 1% (v/v) aqueous acetic acid and further air-drying. Following this, protein-bound dye was dissolved in 10 mM Tris base solution, transferred to a 96-wellplate, and optical density determined at 510 nm using the Synergy HT microplate reader (BioTek). VCaP cell growth assays were analyzed using CellTiter-Glo® Luminescent Cell Viability Assay (Promega) as per manufacturer instructions, and luminescence quantified using the Synergy HT microplate reader (BioTek)."}, "[8]": {"test_system": "12-mer peptide substrate of the LUC7L2 pre-mRNA splicing factor"}},
  "data": [
    {"molecule": "O=C(O)c1ccnc(C(=O)O)c1", "note": "[2,4-PDCA, pyridine-2,4-dicarboxylic acid]", "values": [
      {"measurement": "AR-V7 protein levels", "setting": "[1]", "value": "dose-dependent reduction"},
      {"measurement": "permeability", "setting": "[2]", "value": "low"},
      {"measurement": "isolated JMJD6-mediated lysyl-5-hydroxylation of LUC7-Like (LUC7L)", "setting": "[3]", "value": "dose-dependent reduction"}
    ]},
    {"molecule": "COc1cc2c(cc1-c1c(C)noc1C)ncc1[nH]c(=O)n([C@H](C)c3ccccn3)c12", "note": "[I-BET151]", "values": [
      {"measurement": "AR-V7 protein expression", "setting": "[4]", "value": "dose-dependent reduction"},
      {"measurement": "JMJD6 protein expression", "setting": "[5]", "value": "dose-dependent reduction"}
    ]},
    {"molecule": "CNC(=O)c1ccc(N2C(=S)N(c3ccc(C#N)c(C(F)(F)F)c3)C(=O)C2(C)C)cc1F", "note": "[enzalutamide]", "values": [
      {"measurement": "AR-V7 protein (WB) levels", "setting": "[6]", "value": "increase significantly"},
      {"measurement": "VCaP PC cell viability", "setting": "[7]", "value": "reduced"}
    ]},
    {"molecule": "JMJD6 (1-362)", "values": [
      {"measurement": "lysyl-5-hydroxylation of the peptide substrate (LC-MS, % conversion to the +16 hydroxylated peptide)", "setting": "[8]", "value": "2,4-PDCA caused dose-dependent reduction in isolated JMJD6-mediated lysyl-5-hydroxylation of the known downstream target LUC7-Like (LUC7L)"}
    ]}
  ]
}
